Counter-ions that a name gives are not always drawn.
Target: human σ1 receptor (Homo sapiens, UniProt Q99720)
Test: biochemical
Parameters: μ and σ1 dual binding: scale not given here
Details: combined class from Ki at human σ1 receptor (A1) and Ki at human μ-opioid receptor (A2), radioligand binding; for Ki: read-out: μ and σ1 dual binding
Experimental: Biological Activity Pharmacological Study Human σ1 Receptor Radioligand Assay
The assay was carried out with 7 μg of membrane suspension, 5 nM of [^3H](+)-pentazocine in either absence or presence of either buffer or 10 μM Haloperidol for total and non-specific binding, respectively. Binding buffer contained Tris-HCl 50 mM at pH 8. Plates were incubated at 37° C. for 120 minutes. After the incubation period, the reaction mix was then transferred to MultiScreen HTS, FC plates (Millipore), filtered and plates were washed 3 times with ice-cold 10 mM Tris-HCL (pH7.4). Filters were dried and counted at approximately 40% efficiency in a MicroBeta scintillation counter (Perkin-Elmer) using EcoScint liquid scintillation cocktail

Sequence of human σ1 receptor (Q99720 whole entry): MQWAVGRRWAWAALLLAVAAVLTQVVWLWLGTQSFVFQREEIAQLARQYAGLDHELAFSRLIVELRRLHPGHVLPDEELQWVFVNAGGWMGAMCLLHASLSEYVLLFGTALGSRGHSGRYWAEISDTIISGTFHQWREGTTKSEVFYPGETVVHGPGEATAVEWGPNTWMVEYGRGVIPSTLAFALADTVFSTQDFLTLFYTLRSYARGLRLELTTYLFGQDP

Ki | Structure (SMILES) | μ and σ1 dual binding
> 500 nM | O=C(c1ccccc1)N1CCOC2(CCN(CCc3cccnc3)CC2)C1 [Example 71, phenyl(9-(2-(pyridin-3-yl)ethyl)-1-oxa-4,9-diazaspiro[5.5]undecan-4-yl)methanone dihydrochloride] | 
 | Cl.O=C(CC1CCOCC1)N1CCOC2(CCN(CCc3ccccc3)CC2)C1 [Example 16, 1-(9-phenethyl-1-oxa-4,9-diazaspiro[5.5]undecan-4-yl)-2-(tetrahydro-2H-pyran-4-yl)ethanone hydrochloride] | ++
 | Cl.O=C(Cc1ccccc1)N1CCOC2(CCN(CCc3ccccc3)CC2)C1 [Example 4, 1-(9-phenethyl-1-oxa-4,9-diazaspiro[5.5]undecan-4-yl)-2-phenylethanone hydrochloride] | ++
 | C[C@@H]1CN(C(=O)c2ccccn2)CC2(CCN(CCc3ccccc3)CC2)O1.Cl [Example 124, (R)-(2-methyl-9-phenethyl-1-oxa-4,9-diazaspiro[5.5]undecan-4-yl)(pyridin-2-yl)methanone hydrochloride] | ++
 | CC1CN(C(=O)c2ccccc2)CC2(CCN(CCc3cccc(C(F)(F)F)n3)CC2)O1 (centres unmarked) [Example 38, (2-methyl-9-(2-(6-(trifluoromethyl)pyridin-2-yl)ethyl)-1-oxa-4,9-diazaspiro[5.5]undecan-4-yl)(phenyl)methanone dihydrochloride] | ++
> 500 nM | CC1CN(C(=O)c2cccc(F)c2F)CC2(CCN(CCc3ncccc3F)CC2)O1 (centres unmarked) [Example 147, (2,3-difluorophenyl)(9-(2-(3-fluoropyridin-2-yl)ethyl)-2-methyl-1-oxa-4,9-diazaspiro[5.5]undecan-4-yl)methanone] | 
> 500 nM | Nc1cccc(CCN2CCC3(CC2)CN(C(=O)c2ccccc2)CCO3)c1 [Example 104, (9-(3-aminophenethyl)-1-oxa-4,9-diazaspiro[5.5]undecan-4-yl)(phenyl)methanone] | 
 | Cl.O=C(c1ccccc1)N1CCOC2(CCN(CCc3ccc(C(F)(F)F)nc3)CC2)C1 [Example 70, phenyl(9-(2-(6-(trifluoromethyl)pyridin-3-yl)ethyl)-1-oxa-4,9-diazaspiro[5.5]undecan-4-yl)methanone hydrochloride] | ++
> 500 nM | CC(C)OCCN1CCC2(CC1)CN(C(=O)c1ccccc1)CC(C)O2 (centres unmarked) [Example 88, (9-(2-isopropoxyethyl)-2-methyl-1-oxa-4,9-diazaspiro[5.5]undecan-4-yl)(phenyl)methanone hydrochloride] | 
 | Cl.O=S(=O)(c1ccccc1)N1CCOC2(CCN(CCc3ccccc3)CC2)C1 [Example 83, 9-phenethyl-4-(phenylsulfonyl)-1-oxa-4,9-diazaspiro[5.5]undecane hydrochloride] | ++
 | Cl.O=C(c1ccccc1)N1CCOC2(CCN(CCc3ccccn3)CC2)C1 [Example 63, phenyl(9-(2-(pyridin-2-yl)ethyl)-1-oxa-4,9-diazaspiro[5.5]undecan-4-yl)methanone hydrochloride] | ++
 | CC1CN(C(=O)c2ccccc2)CC2(CCN(CCc3cccc(NC(N)=O)c3)CC2)O1.Cl (centres unmarked) [Example 109, 1-(3-(2-(4-benzoyl-2-methyl-1-oxa-4,9-diazaspiro[5.5]undecan-9-yl)ethyl)phenyl)urea hydrochloride] | ++
 | CC1CN(C(=O)c2ccccn2)CC2(CCN(CCc3ncccc3Cl)CC2)O1.Cl (centres unmarked) [Example 48, (9-(2-(3-chloropyridin-2-yl)ethyl)-2-methyl-1-oxa-4,9-diazaspiro[5.5]undecan-4-yl)(pyridin-2-yl)methanone hydrochloride] | ++
 | Cl.O=C(c1ncccc1F)N1CCOC2(CCN(CCc3ccccc3)CC2)C1 [Example 25, (3-fluoropyridin-2-yl)(9-phenethyl-1-oxa-4,9-diazaspiro[5.5]undecan-4-yl)methanone hydrochloride] | ++
> 500 nM | O=C(c1ccccc1)N1CCOC2(CCN(CCc3cccc([N+](=O)[O-])c3)CC2)C1 [Example 97, (9-(3-nitrophenethyl)-1-oxa-4,9-diazaspiro[5.5]undecan-4-yl)(phenyl)methanone] | 
> 500 nM | CC1CN(C(=O)c2cccc(F)c2)CC2(CCN(CCc3ncccc3F)CC2)O1 (centres unmarked) [Example 151, (3-fluorophenyl)(9-(2-(3-fluoropyridin-2-yl)ethyl)-2-methyl-1-oxa-4,9-diazaspiro[5.5]undecan-4-yl)methanone] | 
 | Cl.O=C(CC1CC1)N1CCOC2(CCN(CCc3ccccc3)CC2)C1 [Example 20, 2-cyclopropyl-1-(9-phenethyl-1-oxa-4,9-diazaspiro[5.5]undecan-4-yl)ethanone hydrochloride] | ++
> 500 nM | CC1CN(C(=O)c2ccc(Cl)cn2)CC2(CCN(CCc3csc(NC(=O)OC(C)(C)C)n3)CC2)O1 (centres unmarked) [Example 78, tert-butyl (4-(2-(4-(5-chloropicolinoyl)-2-methyl-1-oxa-4,9-diazaspiro[5.5]undecan-9-yl)ethyl)thiazol-2-yl)carbamate] | 
 | CC(=O)Nc1ccccc1CCN1CCC2(CC1)CN(C(=O)c1ccccc1)CC(C)O2.Cl (centres unmarked) [Example 112, N-(2-(2-(4-benzoyl-2-methyl-1-oxa-4,9-diazaspiro[5.5]undecan-9-yl)ethyl)phenyl)acetamide hydrochloride] | ++
 | Cl.O=C(c1cncc(F)c1)N1CCOC2(CCN(CCc3ccccc3)CC2)C1 [Example 26, (5-fluoropyridin-3-yl)(9-phenethyl-1-oxa-4,9-diazaspiro[5.5]undecan-4-yl)methanone hydrochloride] | ++
> 500 nM | CC1CN(C(=O)c2ccccc2)CC2(CCN(CCc3csc(NC(=O)OC(C)(C)C)n3)CC2)O1 (centres unmarked) [Example 79, tert-butyl (4-(2-(4-benzoyl-2-methyl-1-oxa-4,9-diazaspiro[5.5]undecan-9-yl)ethyl)thiazol-2-yl)carbamate] | 
 | CC1CN(C(=O)c2ccccc2)CC2(CCN(CCc3csc(N)n3)CC2)O1.Cl (centres unmarked) [Example 103, (9-(2-(2-aminothiazol-4-yl)ethyl)-2-methyl-1-oxa-4,9-diazaspiro[5.5]undecan-4-yl)(phenyl)methanone] | ++
> 500 nM | CC(C)CCN1CCC2(CC1)CN(C(=O)c1ccccc1)CC(C)O2 (centres unmarked) [Example 86, (9-isopentyl-2-methyl-1-oxa-4,9-diazaspiro[5.5]undecan-4-yl)(phenyl)methanone hydrochloride] | 
 | CC1CN(C(=O)c2cncc(C(F)(F)F)c2)CC2(CCN(CCc3ccccc3)CC2)O1.Cl (centres unmarked) [Example 36, (2-methyl-9-phenethyl-1-oxa-4,9-diazaspiro[5.5]undecan-4-yl)(5-(trifluoromethyl)pyridin-3-yl)methanone hydrochloride] | ++
 | CC1CN(C(=O)c2ncccc2F)CC2(CCN(CCc3ccccc3)CC2)O1.Cl (centres unmarked) [Example 32, (3-fluoropyridin-2-yl)(2-methyl-9-phenethyl-1-oxa-4,9-diazaspiro[5.5]undecan-4-yl)methanone hydrochloride] | ++
 | CC1CN(C(=O)c2ccccn2)CC2(CCN(CCc3cccc(OC(F)(F)F)c3)CC2)O1 (centres unmarked) [Example 80, (2-methyl-9-(3-(trifluoromethoxy)phenethyl)-1-oxa-4,9-diazaspiro[5.5]undecan-4-yl)(pyridin-2-yl)methanone dihydrochloride] | ++

— patent US10065971B2 (priority 2014, dated 2018)
